According to the Kinase Knowledgebase extract (Sharma et al. 2016):
pIC50: −log10 of the molar value.

Molecular target: MAPK14;MAPK11;MAPK12 (human) (UniProt Q16539)
Assay: Inhibition of p38 Kinase Activity

SMILES | pIC50
O=C(O)CCC(=O)N1CCN(c2nc(Nc3ccc4ncsc4c3)nc(NC3CCc4ccccc43)n2)CC1 (stereo not drawn) | > 5.00
CC(CCCCCCN(C)c1nc(NCC(C)c2ccccc2)nc(Nc2ccc3ncsc3c2)n1)C(N)=O (stereo not drawn) | > 5.00
CCCC1(C)CCN(c2nc(Nc3cc(C(N)=O)ccc3C)nc(N[C@@H]3CCNC3)n2)C1 (stereo partly drawn) | > 6.00
Cc1ccc(C(N)=O)cc1Nc1nc(NC2CCCNC2)nc(N(C)CC(C)C)n1 (stereo not drawn) | > 6.00
Cc1ccc(C(N)=O)cc1Nc1nc(N[C@H]2CCCC[C@H]2NC(=O)CC(C)C)nc(N(C)CC(C)C)n1 | > 6.00
Cc1ccc(-c2nc3ccccc3[nH]2)cc1Nc1nc(N[C@@H]2CCNC2)nc(N(C)CC(C)(C)C)n1 | > 6.00
CCN1CC[C@@H](Nc2nc(Nc3cc(C(=O)NOC)ccc3C)nc(N(C)CC(C)(C)C)n2)C1 | > 6.00
CC(CNc1nc(Cl)nc(Nc2ccc3ncsc3c2)n1)c1ccc(Cl)cc1 (stereo not drawn) | > 5.00
Cc1cc2c(cc1Cl)C(=O)N2c1nc(N[C@H]2CCNC2)nc(N(C)CC(C)(C)C)n1 | > 6.00
CNC(=O)c1ccc(C)c(Nc2nc(NC3CCN(Cc4ccccc4)C3)nc(N(C)CC(C)C)n2)c1 (stereo not drawn) | > 6.00
CNC(=O)c1ccc(C)c(Nc2nc(N[C@H]3CCN(Cc4ccccc4OC)C3)nc(N(C)CC(C)C)n2)c1 | > 6.00
Cc1ccc(C(=O)NC2CCCC2)cc1Nc1nc(N[C@H]2CCNC2)nc(N(C)CC(C)(C)C)n1 | > 6.00
COc1ccccc1NC(=O)c1ccc(C)c(Nc2nc(N[C@H]3CCNC3)nc(N(C)CC(C)(C)C)n2)c1 | > 6.00
CC(C)C(=O)N1CCN(c2nc(NCC(C)c3ccccc3)nc(Nc3ccc4ncsc4c3)n2)CC1 (stereo not drawn) | > 5.00
COc1ccc(CN2CCC(Nc3nc(Nc4cc(C(N)=O)ccc4C)nc(N(C)CC(C)C)n3)C2)cc1 (stereo not drawn) | > 6.00
CONC(=O)c1ccc(C)c(Nc2nc(NCCNC(C)=O)nc(N(C)CC(C)(C)C)n2)c1 | > 6.00
CNCCN(C)c1nc(NCC2CCC3CC2C3(C)C)nc(Nc2ccc3ncccc3c2)n1 (stereo not drawn) | > 5.00
CCONC(=O)c1ccc(C)c(Nc2nc(N(C)CC(C)(C)C)cc(N3CCCN(C)CC3)n2)c1 | > 6.00
Cc1ccc(C(N)=O)cc1Nc1nc(NCCc2ccc(Cl)cc2)nc(N[C@H]2CCNC2)n1 | > 6.00

Second part, the compound after the results:

pIC50 | SMILES
> 6.00 | Cc1ccc(C(N)=O)cc1Nc1nc(NC2CCc3ccccc32)nc(N[C@@H]2CCNC2)n1 (stereo partly drawn)
> 6.00 | Cc1ccc(C(N)=O)cc1Nc1nc(NC2CCN(CCc3ccccc3)C2)nc(N(C)CC(C)C)n1 (stereo not drawn)
> 6.00 | CCONC(=O)c1ccc(C)c(Nc2nc(N[C@H]3CCNC3)nc(N(C)CC(C)C)n2)c1
> 5.00 | Cc1ccc2ncn(-c3nc(NCCOC(C)C)cc(N(C)C)n3)c2c1
> 6.00 | COc1ncc(CN2CC[C@@H](Nc3nc(Nc4cc(C(N)=O)ccc4C)nc(N(C)CC(C)C)n3)C2)c(OC)n1
> 6.00 | CCCCNC(=O)c1ccc(C)c(Nc2nc(N[C@H]3CCNC3)nc(N(C)CC(C)(C)C)n2)c1
> 6.00 | Cc1ccc(C(N)=O)cc1Nc1nc(N[C@H]2CCN(c3ccccc3)C2)nc(N(C)CC(C)(C)C)n1
> 5.00 | CC(C)c1nc(NCC(C)c2ccccc2)nc(Nc2ccc3ncsc3c2)n1 (stereo not drawn)
> 5.00 | C[C@H](CNc1nc(Nc2ccc3ncsc3c2)nc(N(C)CCN(C)C(=O)CCC(=O)O)n1)c1ccccc1
